Literature values in publication PMC3372989, “Conformational Differences between Active Angiotensins and Their Inactive Precursors” (Acta Naturae, 2012).

What was measured:
[1] = background statement, no reference printed directly at the statement
receptors of Ang2 = conditions: ref [4]
Source text: The oft-cited example of the structural differences between peptides found in their protein precursor and peptides in a free state is human angiotensinogen and its metabolites; i.e. , angiotensins 1, 2 and 3. Angiotensin 1 (Ang1) is a prohormone that consists of 10 amino acid residues and is produced from angiotensinogen as a result of the cleavage of the N-terminal peptide. […] Angiotensin 2 (Ang2) differs from angiotensin 1 by the absence of two C-terminal amino acid resi ...

[2] = doses needed for immunization (10–50 µg/mouse), even intramuscular and subcutaneous injections
Source text: The human and mouse angiotensins 1, as well as angiotensins 2 and 3, have identical amino acid sequences. […] Altogether, it makes angiotensins extremely inconvenient immunogens; however, their conjugation with Hsp70, an adjuvant protein from M. tuberculosis, allowed to overcome the immunological tolerance and to eliminate the toxicity. As a result, we ob ...

## angiotensin 1
[1]
  physiological activity: exhibits no physiological activity
Receptors of Ang2
  binding to the receptors of Ang2: incapable of binding to the receptors of Ang2

## angiotensin 2
[2]
  fatal outcome on introduction into the body: leads to a fatal outcome
[1]
  physiological activity: exhibit physiological activity
